Source: patent publication US20100305098A1, “METHODS OF USE” (priority 2007, published 2010)

How the values were obtained:
CB2 = molecular target: T1, CB2 (Homo sapiens, UniProt P34972); experiment: FLIPR functional screen; format: cell-based; conditions: antagonist mode
T1 construct: Millipore

GPR41 = molecular target: T2, GPR41 (Homo sapiens, UniProt O14843); experiment: FLIPR functional screen; format: cell-based; conditions: antagonist mode
T2 construct: Millipore

OPRM1 = molecular target: T3, OPRM1 (Homo sapiens, UniProt P35372); experiment: FLIPR functional screen; format: cell-based; conditions: antagonist mode
T3 construct: Millipore

CCR9 = molecular target: T4, CCR9 (Homo sapiens, UniProt P51686); experiment: FLIPR functional screen; format: cell-based; conditions: antagonist mode
T4 construct: Millipore

5-HT1A = molecular target: T5, 5-HT1A (Homo sapiens, UniProt P08908); experiment: FLIPR functional screen; format: cell-based; conditions: antagonist mode
T5 construct: purchased Millipore (outsourced screen)

Mouse CD4+ T cells = experiment: IL-23 induced Th17 expansion; format: cell-based; conditions: 120 h, anti-TCR/anti-CD28 mAb and IL-23 (30 ng/ml), 5 days, FACS, read-out: IC50 for reduction of IL-23-induced Th17-producing cells
Method: IL-23 induced Th17 expansion. CD4^+ T cells were isolated from C57BL/6 mice and activated with anti-TCR (1 μg/ml plate-bound) and anti-CD28 (2 μg/ml soluble) with or without IL-23 (30 ng/ml) for 5 days. IL-17 producing cells were analyzed by IL-17 intracellular staining as described by manufacture (BD).
The effect of ER-819924-01 on IL-23-induced Th17 expansion was studied in vitro (FIG. 9). Mouse CD4^+ T cells were cultured with anti-TCR/anti-CD28 mAb and IL-23 (30 ng/ml) in the presence or absence of ER-819924-01 or anti-PGE2 Ab for 5 days. IL-17 producing T cells were analyzed by FACS of intracellular staining. ER-819924-01 reduced the number of IL-23-induced Th17-producing cells with an IC50 value of ˜10-100 nM.

RDKR2 = molecular target: T6, RDKR2 (Homo sapiens, UniProt P30411); experiment: FLIPR functional screen; format: cell-based; conditions: antagonist mode
T6 construct: Millipore

CCR2B = molecular target: T7, CCR2B (Homo sapiens, UniProt P41597); experiment: FLIPR functional screen; format: cell-based; conditions: antagonist mode
T7 construct: Millipore

Prostanoid DP = molecular target: T8, Prostanoid DP (Homo sapiens, UniProt Q13258); experiment: Competitive radioligand binding (MDS Pharma)
T8 construct: purchased MDS Pharma (outsourced assay)
T8 sequence (Q13258 whole entry): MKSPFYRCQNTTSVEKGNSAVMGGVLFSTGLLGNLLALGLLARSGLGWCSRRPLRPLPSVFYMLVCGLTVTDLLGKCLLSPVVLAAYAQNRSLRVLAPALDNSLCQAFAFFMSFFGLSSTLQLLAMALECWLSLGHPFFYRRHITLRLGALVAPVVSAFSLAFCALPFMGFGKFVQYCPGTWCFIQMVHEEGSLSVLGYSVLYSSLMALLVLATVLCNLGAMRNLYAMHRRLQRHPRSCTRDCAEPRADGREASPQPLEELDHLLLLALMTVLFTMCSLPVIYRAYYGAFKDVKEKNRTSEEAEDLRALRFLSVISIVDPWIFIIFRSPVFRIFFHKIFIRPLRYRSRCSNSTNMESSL

ADRB3 = molecular target: T9, ADRB3 (Homo sapiens, UniProt P13945); experiment: FLIPR functional screen; format: cell-based; conditions: antagonist mode
T9 construct: purchased Millipore (outsourced screen)
T9 sequence (P13945 whole entry): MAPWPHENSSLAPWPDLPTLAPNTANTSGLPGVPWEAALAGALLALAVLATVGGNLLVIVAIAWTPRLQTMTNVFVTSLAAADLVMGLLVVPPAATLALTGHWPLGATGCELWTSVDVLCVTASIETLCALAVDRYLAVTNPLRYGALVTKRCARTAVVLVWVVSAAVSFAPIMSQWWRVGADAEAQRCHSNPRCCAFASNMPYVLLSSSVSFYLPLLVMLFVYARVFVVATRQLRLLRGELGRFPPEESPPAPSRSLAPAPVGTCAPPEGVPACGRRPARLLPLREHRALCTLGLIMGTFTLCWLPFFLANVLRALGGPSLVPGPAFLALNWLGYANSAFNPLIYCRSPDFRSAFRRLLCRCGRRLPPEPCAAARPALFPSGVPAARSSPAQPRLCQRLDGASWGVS

CB1 = molecular target: T10, CB1 (Homo sapiens, UniProt P21554); experiment: FLIPR functional screen; format: cell-based; conditions: antagonist mode
T10 construct: Millipore

S1P1 = molecular target: T11, S1P1 (Homo sapiens, UniProt P21453); experiment: FLIPR functional screen; format: cell-based; conditions: antagonist mode
T11 construct: Millipore
T11 sequence (P21453 whole entry, species assumed): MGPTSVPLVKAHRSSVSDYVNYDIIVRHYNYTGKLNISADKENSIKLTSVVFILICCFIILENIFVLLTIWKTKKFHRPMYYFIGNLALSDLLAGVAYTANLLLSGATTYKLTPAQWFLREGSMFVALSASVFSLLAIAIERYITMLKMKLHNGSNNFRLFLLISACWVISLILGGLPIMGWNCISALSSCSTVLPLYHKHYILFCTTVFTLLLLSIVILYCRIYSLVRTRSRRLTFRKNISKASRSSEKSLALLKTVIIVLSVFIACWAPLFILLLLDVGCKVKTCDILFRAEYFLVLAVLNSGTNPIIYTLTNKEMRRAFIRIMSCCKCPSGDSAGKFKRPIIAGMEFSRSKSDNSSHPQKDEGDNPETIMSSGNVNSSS

V2 = molecular target: T12, V2 (Homo sapiens, UniProt P30518); experiment: FLIPR functional screen; format: cell-based; conditions: antagonist mode
T12 construct: Millipore
T12 sequence (P30518 whole entry): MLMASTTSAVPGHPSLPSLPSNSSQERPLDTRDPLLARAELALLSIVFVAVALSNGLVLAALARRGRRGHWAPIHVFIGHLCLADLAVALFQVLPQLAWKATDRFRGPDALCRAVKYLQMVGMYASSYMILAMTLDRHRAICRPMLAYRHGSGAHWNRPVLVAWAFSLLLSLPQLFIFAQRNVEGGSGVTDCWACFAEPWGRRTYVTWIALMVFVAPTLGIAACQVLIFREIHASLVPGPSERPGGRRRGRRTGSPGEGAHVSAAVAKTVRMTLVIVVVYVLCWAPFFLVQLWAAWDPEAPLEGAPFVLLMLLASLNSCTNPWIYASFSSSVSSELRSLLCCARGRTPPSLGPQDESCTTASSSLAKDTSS

GPR43 = molecular target: T13, GPR43 (Homo sapiens, UniProt O15552); experiment: FLIPR functional screen; format: cell-based; conditions: antagonist mode
T13 construct: Millipore
T13 sequence (O15552 whole entry, species assumed): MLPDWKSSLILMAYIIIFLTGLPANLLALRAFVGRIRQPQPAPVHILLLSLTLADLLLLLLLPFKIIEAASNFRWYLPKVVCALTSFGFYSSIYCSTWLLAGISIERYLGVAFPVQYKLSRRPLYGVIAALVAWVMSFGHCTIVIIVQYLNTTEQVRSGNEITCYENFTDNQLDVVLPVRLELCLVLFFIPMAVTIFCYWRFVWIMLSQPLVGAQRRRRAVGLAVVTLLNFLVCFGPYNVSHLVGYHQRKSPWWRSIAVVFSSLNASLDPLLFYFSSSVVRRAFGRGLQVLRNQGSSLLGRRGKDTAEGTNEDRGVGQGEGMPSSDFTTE

LPA1 = molecular target: T14, LPA1 (Homo sapiens, UniProt Q92633); experiment: FLIPR functional screen; format: cell-based; conditions: antagonist mode
T14 construct: Millipore

NK3 = molecular target: T15, NK3 (Homo sapiens, UniProt P29371); experiment: FLIPR functional screen; format: cell-based; conditions: antagonist mode
T15 construct: Millipore
T15 sequence (P29371 whole entry): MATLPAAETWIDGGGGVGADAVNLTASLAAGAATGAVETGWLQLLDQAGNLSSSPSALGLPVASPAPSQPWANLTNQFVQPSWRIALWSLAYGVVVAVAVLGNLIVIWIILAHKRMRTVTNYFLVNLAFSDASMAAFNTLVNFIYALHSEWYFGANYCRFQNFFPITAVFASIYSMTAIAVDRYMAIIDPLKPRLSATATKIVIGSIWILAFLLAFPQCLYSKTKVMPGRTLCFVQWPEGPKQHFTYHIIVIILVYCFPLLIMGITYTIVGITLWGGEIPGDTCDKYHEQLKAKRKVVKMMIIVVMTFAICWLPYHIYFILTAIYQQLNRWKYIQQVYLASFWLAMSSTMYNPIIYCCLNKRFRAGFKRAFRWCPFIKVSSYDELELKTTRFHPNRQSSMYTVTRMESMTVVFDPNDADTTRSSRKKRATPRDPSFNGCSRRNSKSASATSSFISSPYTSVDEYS

CCK2 = molecular target: T16, CCK2 (Homo sapiens, UniProt P32239); experiment: FLIPR functional screen; format: cell-based; conditions: antagonist mode
T16 construct: Millipore

MOTILIN = molecular target: T17, MOTILIN (Homo sapiens, UniProt O43193); experiment: FLIPR functional screen; format: cell-based; conditions: antagonist mode
T17 construct: Millipore

C5AR = molecular target: T18, C5AR (Homo sapiens, UniProt P21730); experiment: FLIPR functional screen; format: cell-based; conditions: antagonist mode
T18 construct: Millipore

FPR2 = molecular target: T19, FPR2 (Homo sapiens, UniProt P25090); experiment: FLIPR functional screen; format: cell-based; conditions: antagonist mode
T19 construct: Millipore
T19 sequence (P25090 whole entry, species assumed): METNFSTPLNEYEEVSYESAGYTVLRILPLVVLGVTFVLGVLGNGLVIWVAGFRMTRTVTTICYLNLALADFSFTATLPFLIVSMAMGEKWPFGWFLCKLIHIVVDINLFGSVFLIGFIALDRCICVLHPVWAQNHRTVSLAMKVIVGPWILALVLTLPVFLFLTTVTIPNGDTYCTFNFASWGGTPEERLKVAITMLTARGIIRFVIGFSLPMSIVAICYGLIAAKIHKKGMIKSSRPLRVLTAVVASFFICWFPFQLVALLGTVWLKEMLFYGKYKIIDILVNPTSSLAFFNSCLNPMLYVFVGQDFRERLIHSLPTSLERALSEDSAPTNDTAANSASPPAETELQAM

H3 = molecular target: T20, H3 (Homo sapiens, UniProt Q9Y5N1); experiment: FLIPR functional screen; format: cell-based; conditions: antagonist mode
T20 construct: Millipore

EP1 = molecular target: T21, EP1 (Homo sapiens, UniProt P34995); experiment: FLIPR functional screen; format: cell-based; conditions: antagonist mode
T21 construct: Millipore

5-HT2C = molecular target: T22, 5-HT2C (Homo sapiens, UniProt P28335); experiment: FLIPR functional screen; format: cell-based; conditions: antagonist mode
T22 construct: purchased Millipore (outsourced screen)

[1] = molecular target: T23, Leukotriene, Cysteinyl CysLT2 (Homo sapiens, UniProt Q9NS75); experiment: Competitive radioligand binding (MDS Pharma)
T23 construct: purchased MDS Pharma (outsourced assay)
T23 sequence (Q9NS75 whole entry): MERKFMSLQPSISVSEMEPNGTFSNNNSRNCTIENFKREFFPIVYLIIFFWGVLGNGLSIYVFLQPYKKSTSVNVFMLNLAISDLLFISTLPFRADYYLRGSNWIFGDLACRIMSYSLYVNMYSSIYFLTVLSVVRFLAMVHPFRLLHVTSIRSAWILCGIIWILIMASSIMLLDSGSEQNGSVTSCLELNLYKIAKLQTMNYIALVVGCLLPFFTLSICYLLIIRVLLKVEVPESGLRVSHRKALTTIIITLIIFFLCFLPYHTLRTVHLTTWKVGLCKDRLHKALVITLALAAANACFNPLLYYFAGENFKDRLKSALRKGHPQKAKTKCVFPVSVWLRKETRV

BB1 = molecular target: T24, BB1 (Homo sapiens, UniProt P28336); experiment: FLIPR functional screen; format: cell-based; conditions: antagonist mode
T24 construct: Millipore
T24 sequence (P28336 whole entry): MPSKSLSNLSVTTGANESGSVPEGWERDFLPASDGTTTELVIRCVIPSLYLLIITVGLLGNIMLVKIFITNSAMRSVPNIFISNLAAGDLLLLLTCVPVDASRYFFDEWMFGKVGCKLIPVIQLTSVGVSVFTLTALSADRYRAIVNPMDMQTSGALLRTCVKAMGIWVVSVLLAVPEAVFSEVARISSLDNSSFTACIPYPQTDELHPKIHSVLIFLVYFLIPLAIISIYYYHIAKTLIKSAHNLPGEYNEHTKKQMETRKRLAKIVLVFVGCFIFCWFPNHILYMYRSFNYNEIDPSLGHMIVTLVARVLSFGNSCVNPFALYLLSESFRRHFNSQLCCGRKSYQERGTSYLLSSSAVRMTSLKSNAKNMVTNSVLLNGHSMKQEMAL

IP1 = molecular target: T25, IP1 (Homo sapiens, UniProt P43119); experiment: FLIPR functional screen; format: cell-based; conditions: antagonist mode
T25 construct: Millipore

[2] = molecular target: T26, Leukotriene, Cysteinyl CysLT1 (Homo sapiens, UniProt Q9Y271); experiment: Competitive radioligand binding (MDS Pharma)
T26 construct: purchased MDS Pharma (outsourced assay)
T26 sequence (Q9Y271 whole entry): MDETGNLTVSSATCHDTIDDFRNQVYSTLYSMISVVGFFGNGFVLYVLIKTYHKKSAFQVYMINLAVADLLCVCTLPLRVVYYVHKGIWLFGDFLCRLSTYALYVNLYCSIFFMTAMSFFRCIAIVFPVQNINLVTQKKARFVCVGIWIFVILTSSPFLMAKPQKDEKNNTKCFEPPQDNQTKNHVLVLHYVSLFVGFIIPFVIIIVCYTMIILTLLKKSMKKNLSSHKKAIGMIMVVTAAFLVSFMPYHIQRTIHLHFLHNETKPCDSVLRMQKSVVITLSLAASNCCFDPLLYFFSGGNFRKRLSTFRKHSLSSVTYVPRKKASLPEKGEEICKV

Y1 = molecular target: T27, Y1 (Homo sapiens, UniProt P25929); experiment: FLIPR functional screen; format: cell-based; conditions: antagonist mode
T27 construct: Millipore

P2Y1 = molecular target: T28, P2Y1 (Homo sapiens, UniProt P47900); experiment: FLIPR functional screen; format: cell-based; conditions: antagonist mode
T28 construct: Millipore

CX3CR1 = molecular target: T29, CX3CR1 (Homo sapiens, UniProt P49238); experiment: FLIPR functional screen; format: cell-based; conditions: antagonist mode
T29 construct: Millipore
T29 sequence (P49238 whole entry, species assumed): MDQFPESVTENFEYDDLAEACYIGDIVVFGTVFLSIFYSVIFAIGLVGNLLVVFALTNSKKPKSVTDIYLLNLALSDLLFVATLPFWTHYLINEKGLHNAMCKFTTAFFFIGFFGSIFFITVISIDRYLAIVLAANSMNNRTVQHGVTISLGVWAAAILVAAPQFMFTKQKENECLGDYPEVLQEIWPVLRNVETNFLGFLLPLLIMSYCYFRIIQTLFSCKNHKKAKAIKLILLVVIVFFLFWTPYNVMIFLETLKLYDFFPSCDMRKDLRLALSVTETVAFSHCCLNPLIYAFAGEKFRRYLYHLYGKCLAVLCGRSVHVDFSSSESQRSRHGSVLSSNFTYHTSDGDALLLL

CCR8 = molecular target: T30, CCR8 (Homo sapiens, UniProt P51685); experiment: FLIPR functional screen; format: cell-based; conditions: antagonist mode
T30 construct: Millipore

CHEMR23 = molecular target: T31, CHEMR23 (Homo sapiens, UniProt Q99788); experiment: FLIPR functional screen; format: cell-based; conditions: antagonist mode
T31 construct: Millipore
T31 sequence (Q99788 whole entry, species assumed): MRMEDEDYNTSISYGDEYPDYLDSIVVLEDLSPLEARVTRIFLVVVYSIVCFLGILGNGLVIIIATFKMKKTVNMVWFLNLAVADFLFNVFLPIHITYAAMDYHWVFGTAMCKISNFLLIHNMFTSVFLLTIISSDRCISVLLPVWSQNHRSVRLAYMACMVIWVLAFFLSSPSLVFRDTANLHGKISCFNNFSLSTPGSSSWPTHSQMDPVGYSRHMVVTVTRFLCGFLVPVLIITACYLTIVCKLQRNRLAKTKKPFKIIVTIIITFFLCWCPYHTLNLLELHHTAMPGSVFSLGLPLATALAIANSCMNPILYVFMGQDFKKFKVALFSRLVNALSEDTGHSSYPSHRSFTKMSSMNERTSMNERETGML

CRF2 = molecular target: T32, CRF2 (Homo sapiens, UniProt Q13324); experiment: FLIPR functional screen; format: cell-based; conditions: antagonist mode
T32 construct: Millipore

CXCR2 = molecular target: T33, CXCR2 (Homo sapiens, UniProt P25025); experiment: FLIPR functional screen; format: cell-based; conditions: antagonist mode
T33 construct: Millipore
T33 sequence (P25025 whole entry, species assumed): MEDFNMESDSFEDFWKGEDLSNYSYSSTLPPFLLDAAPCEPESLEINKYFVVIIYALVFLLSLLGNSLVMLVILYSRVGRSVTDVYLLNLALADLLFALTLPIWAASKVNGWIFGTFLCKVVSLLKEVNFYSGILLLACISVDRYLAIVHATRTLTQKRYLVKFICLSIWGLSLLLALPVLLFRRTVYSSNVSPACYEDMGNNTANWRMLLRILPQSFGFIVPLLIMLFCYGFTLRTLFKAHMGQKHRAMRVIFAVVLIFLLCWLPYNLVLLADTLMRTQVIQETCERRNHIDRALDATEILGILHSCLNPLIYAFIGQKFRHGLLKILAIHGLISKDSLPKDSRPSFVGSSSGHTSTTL

`CCN1C(=O)N2Cc3cc(OC)cc(OC)c3[C@@H](C)C=C2C12CCN(Cc1cccn1C)CC2` [ER-819924-01] showed an inhibition at 1 µM (CB2) of 9.3%, an inhibition at 1 µM (GPR41) of -7.3% and an inhibition at 1 µM (OPRM1) of 35%. The inhibition at 1 µM (CCR9) was -9.1%, the inhibition at 1 µM (5-HT1A) was -1.6% and the IC50 (Mouse CD4+ T cells) was 10 to 100 nM. For the same compound, the inhibition at 1 µM (RDKR2) was 1.7%, the inhibition at 1 µM (CCR2B) was 3.7% and the “% INHIBITION” value (Prostanoid DP; CONC. 0.1 μm) was 0%. The “% INHIBITION” value (Prostanoid DP; CONC. 1 μm) was 13%, the inhibition at 1 µM (ADRB3) was 11.4% and the inhibition at 1 µM (CB1) was 10.5%. It also gave an inhibition at 1 µM (S1P1) of 3.9%, an inhibition at 1 µM (V2) of -24.8% and an inhibition at 1 µM (GPR43) of 10.6%. The inhibition at 1 µM (LPA1) was 8%, the inhibition at 1 µM (NK3) was -2.2% and the inhibition at 1 µM (CCK2) was -0.4%. It also gave an inhibition at 1 µM (MOTILIN) of -0.9%, an inhibition at 1 µM (C5AR) of 6.2% and an inhibition at 1 µM (FPR2) of 6.9%. The inhibition at 1 µM (H3) was -31.5%, the inhibition at 1 µM (EP1) was -2% and the inhibition at 1 µM (5-HT2C) was -12.5%. For the same compound, the “% INHIBITION” value ([1]; CONC. 0.1 μm) was 3%, the “% INHIBITION” value ([1]; CONC. 1 μm) was 0% and the inhibition at 1 µM (BB1) was 7.1%. For the same compound, the inhibition at 1 µM (IP1) was 9.8%, the “% INHIBITION” value ([2]; CONC. 0.1 μm) was −1% and the “% INHIBITION” value ([2]; CONC. 1 μm) was −5%. For the same compound, the inhibition at 1 µM (Y1) was -22.7%, the inhibition at 1 µM (P2Y1) was -37.5% and the inhibition at 1 µM (CX3CR1) was 1.7%. It also gave an inhibition at 1 µM (CCR8) of 2.9%, an inhibition at 1 µM (CHEMR23) of -3.2% and an inhibition at 1 µM (CRF2) of -7%. For the same compound, the inhibition at 1 µM (CXCR2) was 1.2%.
